Assay results from patent US11912710B2 (UPPTHERA, INC., priority 2021, dated 2024).
pIC50: −log10 of the molar value.

Tests used:
Assay type in all cases: cell-based
PLK1 = target: T1, PLK1 (Homo sapiens, UniProt P53350); test: Luciferase assay for PLK1 in HeLa LgBit (Plk1-HiBit KI) cell line; details: 300 nM compound, luminescence after 9 hours, read-out: Activity: ratio of the luminescense value of compound treatment group to DMSO treatment group
T1 construct: endogenous in cells; host or cells: HeLa LgBit (Plk1-HiBit KI): HeLa cells stably expressing LgBit, with HiBit knocked into the endogenous Plk1 locus by CRISPR/Cas9
T1 sequence (P53350 whole entry): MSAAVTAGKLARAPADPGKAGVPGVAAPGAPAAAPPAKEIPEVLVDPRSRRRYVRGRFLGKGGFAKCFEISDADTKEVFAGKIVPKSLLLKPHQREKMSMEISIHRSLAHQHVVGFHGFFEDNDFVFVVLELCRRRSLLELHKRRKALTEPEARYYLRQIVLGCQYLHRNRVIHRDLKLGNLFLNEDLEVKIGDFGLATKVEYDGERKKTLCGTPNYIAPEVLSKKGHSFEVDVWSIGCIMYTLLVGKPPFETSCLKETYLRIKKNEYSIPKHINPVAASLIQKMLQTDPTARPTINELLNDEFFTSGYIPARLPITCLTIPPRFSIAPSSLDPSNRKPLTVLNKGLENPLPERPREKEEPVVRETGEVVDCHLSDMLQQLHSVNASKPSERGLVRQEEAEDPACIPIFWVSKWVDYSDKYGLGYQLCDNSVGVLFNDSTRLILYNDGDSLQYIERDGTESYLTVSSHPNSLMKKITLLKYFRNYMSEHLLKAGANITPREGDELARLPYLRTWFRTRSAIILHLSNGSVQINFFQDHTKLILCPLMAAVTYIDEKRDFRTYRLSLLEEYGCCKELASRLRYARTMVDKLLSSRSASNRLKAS
Method: 2. Luciferase Assay for PLK1
(1) Preparation and Culture of HeLa LgBit (Plk1-HiBit KI) Cell Line
A HeLa cell line in which the LgBit vector was transfected and expressed stably was prepared. Then, after constructing gRNA and donor to express the HiBit amino acid sequence behind the C-terminal of the Plk1 gene, which was inherent in the cell, it was inserted into the cell together with a vector capable of expressing CRISPR/Cas9. Only the cells in which the insertion was completed and knock-in had progressed were selected, sub-cultured and used.
(2) Treatment of Compounds of the Present Invention and Method of Luciferase Assay
In the case of HeLa LgBit (Plk1-HiBit KI), the compounds were treated after being released after thymidine block, and the process was as follows. Thymidine (Sigma-Aldrich Cat. No. T9250-5G) was completely dissolved in DW and used in the experiment. For thymidine block, the products were treated with 2 mM of thymidine and then incubated for 24 hours. For release and chemical treatment, the medium was suctioned and washed with 1×PBS. TrypLE™ was added and incubated in 37° C. CO2 incubator for 5 min. Cells neutralized by adding complete media were counted through a counter. For each well of a 96-well culture plate (SPL), 3.3×10^4 cells and a total medium volume of 150 μL were seeded and incubated in a CO2 incubator.
Each cell line was incubated in a CO2 incubator for 18 hours, and Endurazine was added to each well to make up 4% of the total volume. After adding the compound of the present invention in a 96-well white plate (SPL) to a concentration of 300 nM, the wavelength of the plate reader (BMG Labtech, CLARIOstar Plus) was set to […], and then the luminescence was tracked in real time.
In Table 2, Activity represents the ratio of the luminescense value of each Exemplary Compound treatment group to DMSO treatment group (+++: <0.3, ++<0.6, +<0.7).

NCI-H526 cell line = test: Cell viability assay for H526 cell line; details: Homo sapiens, NCI-H526, 120 h; H526 cells, 5 days, EZ-Cytox, 3000 nM to 0.46 nM
Method: 3. Cell Viability Assay for H526 Cell Line
(1) Culture of NCI-H526 Cell Line
(2) Treatment of Compounds of the Present Invention and Method of Cell Viability Assay
After treating the compound to each well to make the total volume of 200 μL, it was cultured in a CO2 incubator (Thermo Fisher Science, Cat. No. 4111) for 5 days.
The absorbance of the completely cultured sample was measured by setting the wavelength of a plate reader (BMG Labtech, CLARIOstar Plus) to […], and was measured after shaking for 3 minutes in a plate reader before measurement.
In Table 3, Activity represents IC50 value of each Exemplary Compound treatment group to H526 cell line (A: <30 nM, B: <50 nM, C: <100 nM, D: <200 nM, E: <400 nM).

MRC-5 cell line = test: Cell viability assay (cytotoxicity) for MRC-5 cell line; details: Homo sapiens, MRC5, 120 h; MRC-5 normal cell line, 5 days, EZ-Cytox, 10000 nM to 1.52 nM; read-out: Activity: IC50 value to MRC-5 cell line (Exemplary Compounds)
Method: 4. Cell Viability Assay for MRC-5 Cell Line
(1) Culture of MRC-5 Cell Line
Passage of cultured cells was maintained within P15.
(2) Treatment of Compounds of the Present Invention
Then, it was cultured in 37° C.
(3) Cytotoxicity Experiment
CO2 incubator for 4 hours.
Cell Viability Assay for MRC-5 cell line

COc1cc(C(=O)NC2CC3(CCN(CC4CCN(c5ccc(C6CCC(=O)NC6=O)cc5)CC4)CC3)C2)ccc1Nc1ncc2c(n1)N(C1CCCC1)CC(F)(F)C(=O)N2C (stereo not drawn) [Compound 16, 4-((9-cyclopentyl-7,7-difluoro-5-methyl-6-oxo-6,7,8,9-tetrahydro-5H-pyrimido[4,5-b][1,4]diazepin-2-yl)amino)-N-(7-((1-(4-(2,6-dioxopiperidin-3-yl)phenyl)piperidin-4-yl)methyl)-7-azaspiro[3.5]nonan-2-yl)-3-methoxybenzamide]
remaining activity at 0.3 µM (PLK1): < 30%
pIC50 (NCI-H526 cell line): > 7.52
pIC50 (MRC-5 cell line): 5.04

COc1cc(C(=O)NN2CCC([C@@H](C)CN3CCN(c4ccc(C5CCC(=O)NC5=O)cc4F)CC3)CC2)ccc1Nc1ncc2c(n1)N(C1CCCC1)CC(F)(F)C(=O)N2C (stereo partly drawn) [Compound 19, 4-((9-cyclopentyl-7,7-difluoro-5-methyl-6-oxo-6,7,8,9-tetrahydro-5H-pyrimido[4,5-b][1,4]diazepin-2-yl)amino)-N-(4-((2R)-1-(4-(4-(2,6-dioxopiperidin-3-yl)-2-fluorophenyl)piperazin-1-yl)propan-2-yl)piperidin-1-yl)-3-methoxybenzamide]
remaining activity at 0.3 µM (PLK1): < 30%
pIC50 (NCI-H526 cell line): > 7.52
pIC50 (MRC-5 cell line): < 5.00

COc1cc(C(=O)NN2CCC([C@H](C)CN3CCN(c4ccc(C5CCC(=O)NC5=O)cc4F)CC3)CC2)ccc1Nc1ncc2c(n1)N(C1CCCC1)CC(F)(F)C(=O)N2C (stereo partly drawn) [Compound 20, 4-((9-cyclopentyl-7,7-difluoro-5-methyl-6-oxo-6,7,8,9-tetrahydro-5H-pyrimido[4,5-b][1,4]diazepin-2-yl)amino)-N-(4-((2S)-1-(4-(4-(2,6-dioxopiperidin-3-yl)-2-fluorophenyl)piperazin-1-yl)propan-2-yl)piperidin-1-yl)-3-methoxybenzamide]
remaining activity at 0.3 µM (PLK1): < 30%
pIC50 (NCI-H526 cell line): > 7.30
pIC50 (MRC-5 cell line): < 5.00

COc1cc(C(=O)NC2CCN(CC3CC4(CCN(c5ccc(C6CCC(=O)NC6=O)cc5F)CC4)C3)CC2)ccc1Nc1ncc2c(n1)N(C1CCCC1)CC(F)(F)C(=O)N2C (stereo not drawn) [Compound 21, 4-((9-cyclopentyl-7,7-difluoro-5-methyl-6-oxo-6,7,8,9-tetrahydro-5H-pyrimido[4,5-b][1,4]diazepin-2-yl)amino)-N-(1-((7-(4-(2,6-dioxopiperidin-3-yl)-2-fluorophenyl)-7-azaspiro[3.5]nonan-2-yl)methyl)piperidin-4-yl)-3-methoxybenzamide]
remaining activity at 0.3 µM (PLK1): < 30%
pIC50 (NCI-H526 cell line): > 7.30
pIC50 (MRC-5 cell line): < 5.00

COc1cc(C(=O)NCC2CCN(CC3CCN(c4ccc(C5CCC(=O)NC5=O)cc4F)CC3)CC2)ccc1Nc1ncc2c(n1)N(C1CCCC1)CC(F)(F)C(=O)N2C (stereo not drawn) [Compound 22, 4-((9-cyclopentyl-7,7-difluoro-5-methyl-6-oxo-6,7,8,9-tetrahydro-5H-pyrimido[4,5-b][1,4]diazepin-2-yl)amino)-N-((1-((1-(4-(2,6-dioxopiperidin-3-yl)-2-fluorophenyl)piperidin-4-yl)methyl)piperidin-4-yl)methyl)-3-methoxybenzamide]
remaining activity at 0.3 µM (PLK1): < 30%
pIC50 (NCI-H526 cell line): > 7.52
pIC50 (MRC-5 cell line): < 5.00

COc1cc(C(=O)NCC2CC23CCN(CC2CCN(c4ccc(C5CCC(=O)NC5=O)cc4F)CC2)CC3)ccc1Nc1ncc2c(n1)N(C1CCCC1)CC(F)(F)C(=O)N2C (stereo not drawn) [Compound 24, 4-((9-cyclopentyl-7,7-difluoro-5-methyl-6-oxo-6,7,8,9-tetrahydro-5H-pyrimido[4,5-b][1,4]diazepin-2-yl)amino)-N-((6-((1-(4-(2,6-dioxopiperidin-3-yl)-2-fluorophenyl)piperidin-4-yl)methyl)-6-azaspiro[2.5]octan-1-yl)methyl)-3-methoxybenzamide]
remaining activity at 0.3 µM (PLK1): < 30%
pIC50 (NCI-H526 cell line): > 7.30
pIC50 (MRC-5 cell line): < 5.00

COc1cc(C(=O)NC2CC3(CCN(CC4CCN(c5ccc(C6CCC(=O)NC6=O)cc5C)CC4)CC3)C2)ccc1Nc1ncc2c(n1)N(C1CCCC1)CC(F)(F)C(=O)N2C (stereo not drawn) [Compound 25, 4-((9-cyclopentyl-7,7-difluoro-5-methyl-6-oxo-6,7,8,9-tetrahydro-5H-pyrimido[4,5-b][1,4]diazepin-2-yl)amino)-N-(7-((1-(4-(2,6-dioxopiperidin-3-yl)-2-methylphenyl)piperidin-4-yl)methyl)-7-azaspiro[3.5]nonan-2-yl)-3-methoxybenzamide]
remaining activity at 0.3 µM (PLK1): < 30%
pIC50 (NCI-H526 cell line): > 7.52
pIC50 (MRC-5 cell line): < 5.00

COc1cc(C(=O)NC2CC3(CCN(CC4(C)CCN(c5ccc(C6CCC(=O)NC6=O)cc5F)CC4)CC3)C2)ccc1Nc1ncc2c(n1)N(C1CCCC1)CC(F)(F)C(=O)N2C (stereo not drawn) [Compound 26, 4-((9-cyclopentyl-7,7-difluoro-5-methyl-6-oxo-6,7,8,9-tetrahydro-5H-pyrimido[4,5-b][1,4]diazepin-2-yl)amino)-N-(7-((1-(4-(2,6-dioxopiperidin-3-yl)-2-fluorophenyl)-4-methylpiperidin-4-yl)methyl)-7-azaspiro[3.5]nonan-2-yl)-3-methoxybenzamide]
remaining activity at 0.3 µM (PLK1): < 60%
pIC50 (NCI-H526 cell line): > 7.30
pIC50 (MRC-5 cell line): 5.25

COc1cc(C(=O)NC2CC3(CCN(CC4CCN(c5ccc(C6CCC(=O)NC6=O)cc5F)CC4C)CC3)C2)ccc1Nc1ncc2c(n1)N(C1CCCC1)CC(F)(F)C(=O)N2C (stereo not drawn) [Compound 27, 4-((9-cyclopentyl-7,7-difluoro-5-methyl-6-oxo-6,7,8,9-tetrahydro-5H-pyrimido[4,5-b][1,4]diazepin-2-yl)amino)-N-(7-((1-(4-(2,6-dioxopiperidin-3-yl)-2-fluorophenyl)-3-methylpiperidin-4-yl)methyl)-7-azaspiro[3.5]nonan-2-yl)-3-methoxybenzamide]
remaining activity at 0.3 µM (PLK1): < 60%
pIC50 (NCI-H526 cell line): > 7.52
pIC50 (MRC-5 cell line): < 5.00

COc1cc(C(=O)NC2CCN(C(=O)CCN3CCN(c4ccc(N5CCC(=O)NC5=O)cc4)CC3)CC2)ccc1Nc1ncc2c(n1)N(C1CCCC1)CC(F)(F)C(=O)N2C [Compound 32, 4-((9-cyclopentyl-7,7-difluoro-5-methyl-6-oxo-6,7,8,9-tetrahydro-5H-pyrimido[4,5-b][1,4]diazepin-2-yl)amino)-N-(1-(3-(4-(4-(2,4-dioxotetrahydropyrimidin-1(2H)-yl)phenyl)piperazin-1-yl)propanoyl)piperidin-4-yl)-3-methoxybenzamide]
remaining activity at 0.3 µM (PLK1): < 60%
pIC50 (NCI-H526 cell line): > 7.52
pIC50 (MRC-5 cell line): < 5.00

COc1cc(C(=O)NC2CC3(CCN(CC4CCN(c5ccc(N6CCC(=O)NC6=O)cc5)CC4)CC3)C2)ccc1Nc1ncc2c(n1)N(C1CCCC1)CC(F)(F)C(=O)N2C [Compound 33, 4-((9-cyclopentyl-7,7-difluoro-5-methyl-6-oxo-6,7,8,9-tetrahydro-5H-pyrimido[4,5-b][1,4]diazepin-2-yl)amino)-N-(7-((1-(4-(2,4-dioxotetrahydropyrimidin-1(2H)-yl)phenyl)piperidin-4-yl)methyl)-7-azaspiro[3.5]nonan-2-yl)-3-methoxybenzamide]
remaining activity at 0.3 µM (PLK1): < 70%
pIC50 (NCI-H526 cell line): > 7.52
pIC50 (MRC-5 cell line): < 5.00

COc1cc(C(=O)NC2CCN(C(=O)CCCOc3cccc(C4CCC(=O)NC4=O)n3)CC2)ccc1Nc1ncc2c(n1)N(C1CCCC1)CC(F)(F)C(=O)N2C (stereo not drawn) [Compound 35, 4-((9-cyclopentyl-7,7-difluoro-5-methyl-6-oxo-6,7,8,9-tetrahydro-5H-pyrimido[4,5-b][1,4]diazepin-2-yl)amino)-N-(1-(4-((6-(2,6-dioxopiperidin-3-yl)pyridin-2-yl)oxy)butanoyl)piperidin-4-yl)-3-methoxybenzamide]
remaining activity at 0.3 µM (PLK1): < 60%
pIC50 (NCI-H526 cell line): > 7.30
pIC50 (MRC-5 cell line): < 5.00
